“Also recorded” adds a separate entry of the source. Marks after values point to notes of the source that are not given here.
Key:
Aβ40 = target: T1, Aβ40 (Homo sapiens, UniProt P05067); test: Cerebral Aβ40 content of hemi-brain homogenates (commercial kit); format: in vivo, mouse; settings: for brain Aβ40 levels: TgCRND8 mice with pre-existing disease, 28 days from 5 months of age
T1 construct: analyzed for Aβ40 and Aβ42 using commercially available kits; from tissue; host or cells: hemi-brain homogenates of TgCRND8 transgenic mice
Description: (§1) Plasma and Cerebral Aβ Content. Hemi-brain samples were homogenized in a buffered sucrose solution, followed by either 0.4% diethylamine/100 mM NaCl for soluble Aβ levels or cold formic acid for the isolation of total Aβ. After neutralization, the samples were diluted and analyzed for Aβ40 and Aβ42 using commercially available kits (BIOSOURCE International). Each hemisphere was analyzed in triplicate and the mean values±SEM reported. Western blot analyses were performed on all fractions using urea gels for Aβ species analyses. Aβ was detected using 6E10 (BIOSOURCE International) and Enhanced Chemiluminenscence (Amersham).
(§2) Plasma and cerebral Aβ content. Hemi-brain samples were homogenized in a buffered sucrose solution, followed by either a mixture of 0.4% diethylamine and 100 mM NaCl for soluble Aβ levels or cold formic acid for the isolation of total Aβ. After neutralization, samples were diluted and analyzed for Aβ40 and Aβ42 using commercially available kits (Biosource International). Each hemisphere was analyzed in triplicate and the mean±s.e.m. was reported. Western blot analyses were carried out on all fractions using urea gels for Aβ species analyses. Aβ was detected using 6E10 (Biosource International).

TgCRND8 mice = test: Cerebral amyloid plaque burden (anti-Aβ immunostaining, image analysis); format: in vivo, mouse; settings: for amyloid burden in hippocampus and cerebral cortex: TgCRND8 mice at six months of age
Description: Cerebral amyloid burden. […] To generate sets of systematic uniform random sections, 5 μm serial sections were collected across the entire hemisphere. Sets of sections at 50 μm intervals were used for analyses (10-14 sections/set). Plaques were identified after antigen retrieval with formic acid, and incubation with primary anti-Aβ antibody (Dako M-0872), followed by secondary antibody (Dako StreptABCcomplex/horseradish kit). End products were visualized with DAB and were counter-stained with luxol fast blue. Amyloid plaque burden was assessed with Leco IA-3001 image analysis software interfaced with Leica microscope and Hitachi KP-M1U CCD video camera. Openlab imaging software (Improvision, Lexington, Mass.) was then used to convert micrographs to binary images for plaque number and plaque area determinations. Vascular amyloid burden was defined as amyloid originating from or surrounding blood vessels and was analysed similarly. Cerebral Aβ burden. […] Sets of sections at […] intervals for analyses (10-14 sections per set) were used. Plaques with primary Aβ-specific antibody (Dako M-0872) were identified and visualized with DAB. AP plaque burden was assessed with Openlab imaging software (Improvision) and used to convert micrographs to binary images for determinations of plaque number and plaque area. Vascular Aβ burden was defined as Aβ plaques originating from or surrounding blood vessels and was analyzed similarly. Cerebral Aβ burden. […] To generate sets of systematic uniform random sections, 5 μm serial sections were collected across the entire hemisphere. Sets of sections at 50 μm intervals were used for analyses (10-14 sections/set). Plaques were identified after antigen retrieval with formic acid, and incubation with primary anti-Aβ antibody (Dako M-0872), followed by secondary antibody (Dako StreptABCcomplex/horseradish kit). End products were visualized with DAB and were counter-stained with luxol fast blue. Aβ plaque burden was assessed with Leco IA-3001 image analysis software interfaced with Leica microscope and Hitachi KP-M1U CCD video camera. Openlab imaging software (Improvision, Lexington, Mass.) was then used to convert micrographs to binary images for plaque number and plaque area determinations. Vascular Aβ burden was defined as Aβ plaques originating from or surrounding blood vessels and was analyzed similarly.

Aβ42 = target: T2, Aβ42 (Homo sapiens, UniProt P05067); test: Cerebral Aβ42 content of hemi-brain homogenates (commercial kit); format: in vivo, mouse; settings: for brain Aβ42 levels: TgCRND8 mice with pre-existing disease, 28 days from 5 months of age
T2 construct: analyzed for Aβ40 and Aβ42 using commercially available kits; from tissue; host or cells: hemi-brain homogenates and plasma of TgCRND8 transgenic mice
Description: as §1, §2

γ-secretase = test: In vitro γ-secretase assay in HEK293 cells transfected with human APPswe; format: cell-based
Description: FIG. 9. In vitro γ-secretase assays in HEK293 cells transfected with human APPswe. After swAPP stable HEK293 cells were untreated or treated with AZD-103 or 10 nM compound E, cell membranes were used for APP-FL and —CTF detection and for e-stubs generation in vitro assays at 37° C. for 1 hr. Lanes 1&[…] AZD-103 treatment; lanes 3&4 […] AZD-103 treatment; lanes 5&6 compound E treated and lanes 7&8 untreated HEK293 APPswe cells.
Analysis of APP processing. Mouse hemi-brain samples were homogenized and spun at 109,000 g, in 20 mM Tris pH 7.4, 0.25 M sucrose, 1 mM EDTA and 1 mM EGTA, and a protease inhibitor cocktail, mixed with a mixture of 0.4% DEA (diethylamine) and 100 mMNaCl. The supernatants were analyzed for APP levels by western blotting using the monoclonal antibody 22C11, and the pellets were analyzed for APP holoprotein with the monoclonal antibody C1/6.1 as previously described. […] The target protein was probed with polyclonal APP C-terminal fragment-specific antibody (Sigma) by western blotting.

[1] = TgCRND8 mice, prophylactic treatment, 4 months of age
[2] = 1 month Treatment: TgCRND8 mice, oral from 5 to 6 months of age
[3] = 4-month Prophylactic: TgCRND8 mice, oral from 6 weeks to 4 months of age
[4] = 6-month Prophylactic: TgCRND8 mice, oral from 6 weeks to 6 months of age
[5] = TgCRND8 mice with pre-existing disease, 28 days from 5 months of age
[6] = TgCRND8 mice, oral, 28 days from 5 months of age, analysed at 6 months, listed as Epi-cyclohexanchexol
[7] = TgCRND8 mice, prophylactic, 6 months of age
[8] = TgCRND8 mice, 28 day course at 5 months of age, vs untreated
[9] = TgCRND8 mice, oral, 28 days from 5 months of age, analysed at 6 months

T2 sequence (P05067 672-713 limits assumed): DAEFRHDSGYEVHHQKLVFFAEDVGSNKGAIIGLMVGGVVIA
T1 sequence (P05067 672-711 limits assumed): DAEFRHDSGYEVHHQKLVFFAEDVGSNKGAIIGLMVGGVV

Row | Structure (SMILES) | brain Aβ40 levels (Aβ40) | Mean Plaque Size (μm^2) (TgCRND8 mice; [2]) | Total Plaque Area (μm^2) (TgCRND8 mice; [2]) | Mean Plaque Size (μm^2) (TgCRND8 mice; [3]) | Total Plaque Area (μm^2) (TgCRND8 mice; [3]) | Mean Plaque Size (μm^2) (TgCRND8 mice; [4]) | Total Plaque Area (μm^2) (TgCRND8 mice; [4]) | amyloid burden in hippocampus and cerebral cortex (TgCRND8 mice) | percent area of the brain covered with plaques (TgCRND8 mice; [5]) | plaque number (TgCRND8 mice; [5]) | mean plaque size (TgCRND8 mice; [7]) | brain Aβ42 levels (Aβ42) | other results
1 | OC1C(O)C(O)C(O)C(O)C1O (stereo not drawn) [epi-cyclohexanehexol, 1,2,3,4,5/6-(epi-) cyclohexanehexol, reference compound] | no significant impact; also recorded: no significant effect | 346 ± 6 μm^2 | 459706 ± 49966 μm^2 | 95 ± 43 μm^2 | 65042 ± 5199 μm^2 | 370 ± 9 μm^2 | 380456 ± 13498 μm^2 | modest effect on amyloid burden | no significant impact; also recorded: no significant effect | no significant impact; also recorded: no significant effect | reductions were not sustained | no significant impact; also recorded: no significant effect | reduction of brain Aβ40 (range given for both Aβ40 and Aβ42) (Aβ40; [1]): 22-62 % reduction; amyloid burden in hippocampus and cerebral cortex (TgCRND8 mice; listed as AZD-102): modest effect on amyloid burden; Mean Plaque Size (μm^2) (TgCRND8 mice; [6]): 346 ± 6 μm^2; Total Plaque Area (μm^2) (TgCRND8 mice; [6]): 459706 ± 49966 μm^2; Total Plaque Count (TgCRND8 mice; [6]): 1342 ± 114; mean plaque size (TgCRND8 mice; TgCRND8 mice, prophylactic, 4 months of age): significant decrease in mean plaque size; reduction of brain Aβ42 (range given for both Aβ40 and Aβ42) (Aβ42; [1]): 22-62 % reduction
2 | OC1C(O)C(O)C(O)C(O)C1O (centres unmarked) [scyllo-cyclohexanehexol, 1,3,5/2,4,6-(scyllo-) cyclohexanehexol] | reduced levels | 336 ± 6* μm^2 | 420027 ± 14986* μm^2 | 103 ± 4* μm^2 | 63847 ± 2895 μm^2 | 339 ± 10† μm^2 | 262379 ± 5373† μm^2 | significantly decreased amyloid burden | significantly reduced | significantly reduced | smaller mean plaque size | reduced levels | amyloid burden in hippocampus and cerebral cortex (TgCRND8 mice; listed as AZD-103): significantly decreased amyloid burden; effect on pathology (TgCRND8 mice; TgCRND8 mice treated for 2 months, ending at 7 months of age): Sustained effects; plaque size (TgCRND8 mice; [5]): significantly reduced; plaque count, dose-response (TgCRND8 mice; TgCRND8 mice, 0.3-30 mg/kg/d orally, 4 months of age, 6F3D immunostaining): dose-dependent decrease; also recorded: improvement; percent area of the brain covered by plaques, reduction (TgCRND8 mice; [8]): 14±0.5 % reduction; plaque number reduction (TgCRND8 mice; [8]): 13±0.3 % reduction; plaque size reduction (TgCRND8 mice; [8]): 16±0.4 % reduction; plaque burden in hippocampus (TgCRND8 mice; TgCRND8 mice, one month of treatment from 5 months of age): lower plaque burden; Mean Plaque Size (μm^2) (TgCRND8 mice; [9]): 336 ± 6* μm^2; Total Plaque Area (μm^2) (TgCRND8 mice; [9]): 420027 ± 14986* μm^2; Total Plaque Count (TgCRND8 mice; [9]): 1260 ± 27; all measures of plaque burden (TgCRND8 mice; TgCRND8 mice, prophylactic, at 4 and 6 months of age): sustained decrease in all measures of plaque burden; γ-secretase enzyme activity (γ-secretase): no effect

From patent US20070197452A1, “Treatment of amyloid-related diseases” (priority 2006, published 2007)
